Source: US20050043369A1, “Bactericidal antimicrobial methods and compositions for use in treating gram positive infections” (Protez Pharmaceuticals Inc., priority 2000, published 2005)
Read-outs that look alike come from different tables or passages of the source.

Assays:
[1] = system: S. aureus SA1199; assay: Checkerboard two-fold broth microdilution, MIC and MBC; assay type: cell-based, Staphylococcus aureus; conditions: for MBC^b = MBC in the presence of 5 μg/ml of INF 401: plus 5 μg/ml INF 401
Description: Checkerboard titration was performed with INF 401 and erythromycin to quantitate the effects of the combination on Staphylococcal growth using two-fold serial broth microdilution. After overnight incubation, cells were transferred to fresh medium, as described above, to determine those combinations that were bactericidal to S. aureus. […] Although not determined according to NCCLS recommended procedures ([…]), the inventors considered this the Minimal Bactericidal Concentration (MBC).
The inventors next evaluated whether INF 401 was bactericidal in combination with other protein synthesis inhibitors which are bacteriostatic to S. aureus. Checkerboard studies were performed with two-fold dilutions of each antibiotic in combination with INF 401 using the assay described above in Example 2. After overnight incubation the MIC of each antibiotic was determined by visualization of bacterial growth. […] The MBC of each antibiotic was determined as described in Example 2 in the absence or presence of INF 401.

[2] = system: S. aureus (SA1199); assay: Time kill studies (CFU counts); assay type: cell-based, Staphylococcus aureus
Description: FIG. 5A, FIG. 5B and FIG. 5C. […]
The initial inoculum number was determined by plating an appropriate dilution on LB agar plates and determining the number of colony forming units (CFUs). At different time points an aliquot was withdrawn from each tube and cell viability was determined by plating an appropriate dilution and counting CFUs after overnight incubation.

[3] = system: S. pneumoniae; assay: Bactericidal activity (MBC) of translational inhibitors with or without INF 401 in S. pneumoniae; assay type: cell-based, Streptococcus pneumoniae; conditions: antibiotic alone
Source text: It would be desirable that an antibiotic potentiator of the present invention is active not only in S. aureus but also in other bacterial pathogens. The inventors have begun studies to investigate whether INF 401 can also potentiate the activity of translational inhibitors in another Gram positive pathogen, S. pneumoniae.

[4] = system: S. aureus SA1199; assay: Checkerboard two-fold broth microdilution, MIC and MBC; assay type: cell-based, Staphylococcus aureus; conditions: Table 2, plus 10 μg/ml INF 402, unit not given
[5] = system: S. aureus strain SA1199; assay: Screening and titration of potentiators with erythromycin (4 μg/ml), viability read by transfer to fresh medium; assay type: cell-based, Staphylococcus aureus; conditions: for lowest concentration at which the potentiator is active (titration in the presence of erythromycin): erythromycin 4 μg/ml, S. aureus SA1199; for effect on viability of S. aureus in combination with a bacteriostatic concentration of erythromycin: library screen hit; for Activity (minimal concentration required to kill 99.9% of S. aureus): in the presence of 4 μg/ml erythromycin
Description: In an exemplary screening assay, in order to identify a candidate acyl hydrazide, oxy amide or 8-hydroxy quinoline composition as an antibacterial agent potentiator, the S. aureus strain SA1199 may be used. The procedure for screening is as follows: logarithmically growing S. aureus SA1199 are inoculated to a final OD600 of 0.002 into 150 μl of LB medium containing a bacteriostatic concentration of an antimicrobial agent for that strain, for example, erythromycin (4 μg/ml) at four times the Minimal Inhibitory
Concentration (MIC). […] In preliminary studies the inventors determined that under these conditions up to 2000 viable cells were transferred after incubation with erythromycin. As confirmed by broth microdilution, at least a 1000-fold reduction in viability was required to see no visible growth after 20 hours. Acyl hydrazide, oxy amide or 8-hydroxy quinoline antibiotic potentiators may be identified as those compounds that increase the bactericidal effect of the erythromycin.
The macrolide erythromycin was chosen in the initial screen for two reasons: first, its mechanism of inhibition of protein synthesis is well characterized and second, as a macrolide, erythromycin is representative of an expanding class of agents which includes the second most prescribed antibiotic, azithromycin.
In preliminary studies the inventors determined that under these conditions up to 2000 viable cells were transferred after incubation with erythromycin. As confirmed by broth microdilution, at least a 1000-fold reduction in viability was required to see no visible growth after 20 h.
Next the activity of the hit compounds was compared by titration of the compounds in the presence of erythromycin at 4 μg/ml as described above.
(§1) Activity of the compound is depicted as the minimal concentration required to kill 99.9% of S. aureus in the presence of 4 μg/ml erythromycin.

[6] = system: S. aureus ATCC 29213; assay: MBEC assay system, checkerboard: planktonic MIC and biofilm MBEC; assay type: cell-based, Staphylococcus aureus; conditions: INF 401 at 0.3 μg/ml where in label
Description: These studies were performed via the method of Dr. Howard Ceri (University of Calgary), who recently developed a method for the routine determination of the antibiotic susceptibility of biofilms. To date, the inventors have tested the effect of the combination of INF 401 on the ability of either clindamycin or rifampin to eradicate S. aureus biofilms in vitro. S. aureus ATCC 29213 was selected for the study as previous studies of this isolate as a biofilm had been conducted and the isolate served as a quality assurance organism for NCCLS standardization of antibiotic testing. Biofilms were formed as previously described for this organism (Ceri et al., 1999) using the MBEC™ assay system. Checkerboard studies were performed with each antibiotic versus INF 401.

[7] = system: S. aureus SA 29213; assay: 55Fe transport assay (intracellular iron accumulation); assay type: cell-based, Staphylococcus aureus; conditions: compound at 2 μg/ml; S. aureus SA 29213
Description: Next, investigated was whether INF 401 affects intracellular iron accumulation. An ^55Fe transport assay (modified from Sebulsky, 2000) was used to examine the ability of INF 401 to transport iron inside the cell. Briefly, exponentially growing cells were diluted to OD600 0.1 in LB, incubated with ^55FeCl3 for 30 min at 37° C., washed and counted in scintillation fluid using the tritium channel of a scintillation system. […] However, the presence of INF 401 in either the absence or presence of antibiotic led to a dramatic increase in iron accumulation (209,215 and 231,621 DPM, respectively).
as §1

[8] = Staphylococcus aureus, SA1199, read-out: MBC^a = MBC in the absence of INF 401, Table 1, S. aureus SA1199, antibiotic alone, unit inferred
[9] = Staphylococcus aureus, SA1199, read-out: MBC^a = MBC in the absence of INF 401, Table 2, S. aureus SA1199, antibiotic alone, unit inferred
[10] = Table 1, S. aureus SA1199, unit not given
[11] = Table 2, S. aureus SA1199, unit inferred

Compound: CC[C@H]1OC(=O)[C@H](C)[C@@H](O[C@H]2C[C@@](C)(OC)[C@@H](O)[C@H](C)O2)[C@H](C)[C@@H](O[C@@H]2O[C@H](C)C[C@H](N(C)C)[C@H]2O)[C@](C)(O)C[C@@H](C)C(=O)[C@H](C)[C@@H](O)[C@]1(C)O [Erythromycin]
- bactericidal concentration of antibiotic alone as multiple of MIC ([1]; S. aureus, absence of INF 401): 16-32 ×MIC
- Minimal Bactericidal Concentration (greater than 1000-fold decrease in cell viability), antibiotic alone ([1]; S. aureus, not by NCCLS procedure): 16 to 32 µg/mL
- MIC ([1]; Staphylococcus aureus, SA1199): 1 µg/mL
- MBC [1, 8]: 16 to 32 µg/mL
- MBC [1, 9]: > 8 µg/mL
- MBC^b = MBC in the presence of 5 μg/ml of INF 401 [1, 10]: 1
- MIC [1, 11]: 1 µg/mL
- effect of single agent on growth of S. aureus in time kill study ([2]; INF 401 5 μg/ml alone, erythromycin 2×MIC alone): bacteriostatic
- bactericidal concentration in the absence of INF 401 as multiple of MIC [3]: 1 ×MIC
- MBC^b = MBC in the presence of 10 μg/ml of INF 402 [4]: 1

Compound: CC[n+]1c(-c2ccccc2)c2cc(N)ccc2c2ccc(N)cc21 [Ethidium bromide]
- MIC ([1]; Staphylococcus aureus, SA1199): 16 µg/mL
- MBC [1, 8]: > 128 µg/mL
- MBC [1, 9]: > 128 µg/mL
- MBC^b = MBC in the presence of 5 μg/ml of INF 401 [1, 10]: >128
- MIC [1, 11]: 16 µg/mL
- MBC^b = MBC in the presence of 10 μg/ml of INF 402 [4]: >128

Compound: COc1ccc(C(=O)N(O)c2ccccc2)cc1 [INF 402]
- lowest concentration at which the potentiator is active (titration in the presence of erythromycin) [5]: 1.25 to 2.5 µg/mL
- effect on viability of S. aureus in combination with a bacteriostatic concentration of erythromycin [5]: reduced the viability

Compound: Cc1cc(C)c2ccc(NN)nc2c1O [INF 406]
- lowest concentration at which the potentiator is active (titration in the presence of erythromycin) [5]: 0.6 µg/mL
- effect on viability of S. aureus in combination with a bacteriostatic concentration of erythromycin [5]: reduced the viability

Compound: CO[C@H]1/C=C/O[C@@]2(C)Oc3c(C)c(O)c4c(O)c(c(/C=N/N5CCN(C)CC5)c(O)c4c3C2=O)NC(=O)/C(C)=C\C=C\[C@H](C)[C@H](O)[C@@H](C)[C@@H](O)[C@@H](C)[C@H](OC(C)=O)[C@@H]1C [Rifampin]
- MIC ([1]; Staphylococcus aureus, SA1199): 0.009 µg/mL
- MBC [1, 8]: 0.06 µg/mL
- MBC^b = MBC in the presence of 5 μg/ml of INF 401 [1, 10]: 0.0019
- MIC ([6]; Staphylococcus aureus, ATCC29213, planktonic population): 0.0075 µg/mL
- MBEC ([6]; biofilm population): >2 µg/mL

Compound: CN(C)[C@@H]1C(O)=C(C(N)=O)C(=O)[C@@]2(O)C(O)=C3C(=O)c4c(O)cccc4[C@@](C)(O)[C@H]3C[C@@H]12 [Tetracycline]
- MBC [1, 8]: 8 µg/mL
- MBC [1, 9]: > 8 µg/mL
- MBC^b = MBC in the presence of 5 μg/ml of INF 401 [1, 10]: 0.25
- reduction in cell viability, antibiotic in combination with INF 401 ([2]; antibiotic 1×MIC + 5 μg/ml INF 401): 3 log10
- bactericidal concentration in the absence of INF 401 as multiple of MIC [3]: 4 ×MIC
- MBC^b = MBC in the presence of 10 μg/ml of INF 402 [4]: 2

Compound: COc1cc(Cc2cnc(N)nc2N)cc(OC)c1OC [Trimethroprim]
- MBC^a = MBC in the absence of INF 401 ([1]; Table 1, S. aureus SA1199, antibiotic alone, unit inferred): 32 µg/mL
- MBC^b = MBC in the presence of 5 μg/ml of INF 401 [1, 10]: 8
- MIC [1, 10]: 1

Compound: CCOc1cccc(/C=N/NC(=O)Cc2ccc(C)cc2)c1O [drawing 37]
- ^55Fe Accm. [7]: 1,200 DPM
- Activity (minimal concentration required to kill 99.9% of S. aureus) [5]: >10 µg/mL

Compound: CCOc1cccc(/C=N/NC(=O)Cc2ccc(C)cc2)c1O [drawing 38]
- ^55Fe Accm. [7]: 17,400 DPM
- Activity (minimal concentration required to kill 99.9% of S. aureus) [5]: 1.25 µg/mL
